Laboratory results: patent US5627191A, “Therapeutic agents” (The Boots Company PLC, priority 1992, dated 1997)

Experiments:
[1] = Hygroscopicity observed in preparation; format: physicochemical; details: dried before use by heating in vacuo
[2] = molecular target: T1, adrenal membrane angiotensin II receptor (Oryctolagus cuniculus, UniProt P34976); test: Test A: binding affinity to the adrenal membrane angiotensin II receptor in vitro; set-up: species or system rabbit (male New Zealand white); details: rabbit adrenal membranes, 0.05 nM [^125 I]angiotensin II, 60 minutes at 25° C.; read-out: Ki from Test A
T1 construct: Aliquots of rabbit adrenal membranes containing 10-30 μg protein were incubated; from tissue; host or cells: adrenal gland membranes of male New Zealand white rabbits
T1 sequence (P34976 1-359): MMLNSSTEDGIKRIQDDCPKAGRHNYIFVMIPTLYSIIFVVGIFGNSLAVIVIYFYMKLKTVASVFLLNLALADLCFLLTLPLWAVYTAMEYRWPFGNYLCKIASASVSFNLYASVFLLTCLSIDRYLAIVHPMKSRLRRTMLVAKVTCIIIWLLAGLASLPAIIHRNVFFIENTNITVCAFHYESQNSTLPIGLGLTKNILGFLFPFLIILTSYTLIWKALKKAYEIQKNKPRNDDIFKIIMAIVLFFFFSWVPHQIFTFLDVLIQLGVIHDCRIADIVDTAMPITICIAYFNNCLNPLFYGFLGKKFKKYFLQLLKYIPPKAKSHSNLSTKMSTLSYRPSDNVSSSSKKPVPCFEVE
Experimental: In test A the binding affinity of compounds to the adrenal membrane angiotensin II receptor was determined in vitro and in tests B and C the antihypertensive effect of the compounds was measured in vivo. A detailed description of the tests follows. Test A 1) Preparation of Membranes Adrenal glands from male New Zealand white rabbits were homogenised on ice in 20 mM aqueous sodium bicarbonate solution containing 50 μM PMSF (phenylmethanesulphonyl fluoride) (2 ml/g wet weight) using a Polytron (Trademark) homogeniser for 3×15 seconds at setting 8. The homogenate was centrifuged at 900 g for 10 minutes at 4° C. and the pellet was discarded. The supernatant was recentrifuged at 30000 g for 30 minutes at 4° C., and the resulting pellet was resuspended in assay buffer (50 mM Tris-HCl, pH 7.4, containing 1 mM EDTA, 6.5 mM MgCl2, 125 mM NACl, 50 μM PMSF, 5 μg/ml pepstatin and 50 μg/ml each of leupeptin, antipain, aprotinin and chymostatin): 10 ml per g original tissue wet weight. Polyethylene glycol was added (final concentration 30%) as a cryopreservant and the membrane preparation divided into aliquots and stored at -80° C. until required. Protein was determined by a modification of the method of Lowry (Markwell et al, (1978) Anal. Biochem., 87: 206-210). 2) Binding Assay Aliquots of rabbit adrenal membranes containing 10-30 μg protein were incubated with 0.05 nM [^125 I]angiotensin II in the presence or absence of potential angiotensin II antagonists in 1 ml polyamide tubes in a total volume of 200 μI assay buffer. After incubation for 60 minutes am 25° C. the reaction was terminated by the addition of ice-cold assay buffer, and the bound and free radioactivity was separated through Skatron (Trademark) receptor-binding filters, pre-wetted with assay buffer, using a Skatron cell harvester. The filters were washed with ice-cold phosphate buffered saline, dried, and the trapped radioactivity was determined using a gamma counter. Non-specific binding, measured in the presence of 2 μM unlabelled angiotensin II, was subtracted from total binding to obtain specific binding. Radioligand binding curves were analysed using EBDA and LIGAND (Cambridge Biosoft). Values for binding affinity were obtained by nonlinear regression analysis of untransformed data. The activities of the compounds described in the Examples given hereinafter are set out below in Table A, Column 1.

With CCc1nc2c(C)cc(C)nc2n1Cc1ccc(-c2ccccc2-c2c(OC(C)OC(=O)C(C)(C)C)c(=O)c2=O)cc1 (stereo not shown) [Example 17, 1-[2-[4'-(2-ethyl-5,7-dimethyl-3H-imidazo[4,5-b]pyrid-3-ylmethyl)biphenyl-2-yl]-3,4-dioxocyclobut-1-en-1-yloxy]ethyl pivalate 0.22 ethyl acetate solvate] the hygroscopic [1] was “appeared to be hygroscopic” and the Ki [2] was 21.5 nM.

With CCc1nc2c(C)cc(C)nc2n1Cc1ccc(-c2ccccc2-c2c(N(C)C)c(=O)c2=O)cc1 [Example 16, 3-dimethylamino-4-[4'-(2-ethyl-5,7-dimethyl-3H-imidazo-[4,5-b]pyrid-3-ylmethyl)biphenyl-2-yl]cyclobut-3-ene-1,2-dione] the hygroscopic [1] was “appeared to be hygroscopic” and the Ki [2] was 1890 nM.
